Measurements from patent US9284335B2, “Substituted pyrido[3,2-e][1,2,4]triazolo[1,5-c]pyrimidines, pyrido[2,3-e][1,2,4]triazolo[1,5-c]pyrimidines and/or [1,2,4]triazolo[1,5-c]pteridines for treatment of central nervous system diseases and disorders” (DART NEUROSCIENCE (CAYMAN) LTD., priority 2012, dated 2016).

Test system: NS1 cells
Assay: Neurite outgrowth (NOG) assay
Type: cell-based
Procedure: Neuroscreen 1 (NS1) Cells (Cellomics Inc.) were cultured on collagen type I coated 75 cm2 plastic flasks (Biocoat, Becton Dickinson) in a humidified incubator at 37° C. in 5% CO2. Cells were cultured in RPMI complete cell culture medium (Cambrex) supplemented with 10% heat-inactivated horse serum (Invitrogen), 5% heat-inactivated fetal bovine serum (Cellgro), and 2 mM L-glutamine (Cambrex). For expansion, the cells were trypsinized and split at 80% confluence. Cell culture media was changed every 2 to 3 days.
NS1 cells were harvested and counted using a Coulter counter (Becton Dickinson Coulter Z1). Cells were seeded in 96-well collagen I coated plates at a density of 2000 cells per well in volume of 200 μl. RPMI media was supplemented with 200 ng/ml nerve growth factor (NGF, Sigma). NS1 cells were incubated for 72 hours to allow differentiation to a neuronal phenotype. […]
Antibody-stained 96-well plates were stored at 4° C. in the dark until scanning. […] The neurite outgrowth assay is based on two channels to scanning: (1) Channel 1, which detects the Hoechst Dye and is used by the software to identify cells and for automated focusing; and (2) Channel 2, which detects the FITC fluorescence of the secondary antibody and is used by the software to calculate all data generated in reference to neurites. […]

## COc1ccc(C2CNC(=O)C2)cc1OC1CCCC1 (centres unmarked) [Rolipram]
In combination with forskolin
  neurite length and branching / neurite outgrowth: enhanced in dose-dependent manner
Without forskolin
  neurite length and branching / neurite outgrowth: not affected
